# Laboratory results as given in the supplement of paper PMC10307832.
# Assays:
# Assay in all cases: relative viability (nuclei count vs DMSO), 5 days (fraction); higher = more cells survive
# [1] = compound: COc1cc2nc(N3CCCN(C)CC3)nc(NC3CCN(Cc4ccccc4)CC3)c2cc1OC + CS(=O)(=O)CCNCc1ccc(-c2ccc3ncnc(Nc4ccc(OCc5cccc(F)c5)c(Cl)c4)c3c2)o1 [Lapatinib] (partner 2 µM)
# How it was run: (§1)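 A single step with final 0.05% Triton X-100, 1% formaldehyde and 1 ug/ml Hoechst fixed the cells and stained nuclei 5 days after treatment. Lung cancer cell lines in 1536-well plates had been treated by pin tool the day after seeding with one drug alone or a fixed anchor-drug dose plus five library-drug doses (not always all listed) in √10 steps, and nuclei were counted on 4× images. Relative viability is the ratio of nuclei in treated wells to nuclei in vehicle wells, taken as the median of duplicate plates.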
# [2] = compound: COc1cc2nc(N3CCCN(C)CC3)nc(NC3CCN(Cc4ccccc4)CC3)c2cc1OC + O=C(c1cc(Cc2n[nH]c(=O)c3ccccc23)ccc1F)N1CCN(C(=O)C2CC2)CC1 [Olaparib] (partner 8 µM)
# How it was run: as §1
# [3] = compound: Cc1cc([C@@H](C)Nc2ccccc2C(=O)O)c2nc(N3CCOCC3)cc(=O)n2c1 [AZD6482] + Cc1cc(Nc2cc(N3CCN(C)CC3)nc(Sc3ccc(NC(=O)C4CC4)cc3)n2)n[nH]1 [Tozasertib] (partner 0.1 µM)
# How it was run: as §1
# [4] = compound: Cc1cc([C@@H](C)Nc2ccccc2C(=O)O)c2nc(N3CCOCC3)cc(=O)n2c1 [AZD6482] + Nc1ncn([C@H]2C[C@H](O)[C@@H](CO)O2)c(=O)n1 [Decitabine] (partner 2 µM)
# How it was run: as §1
Cell Line,relative viability ([1]; first compound 0.2 µM),relative viability ([1]; first compound 0.6325 µM),relative viability ([1]; first compound 2 µM),relative viability ([1]; first compound 6.325 µM),relative viability ([2]; first compound 0.2 µM),relative viability ([2]; first compound 0.6325 µM),relative viability ([2]; first compound 2 µM),relative viability ([2]; first compound 6.325 µM),relative viability ([3]; first compound 0.08 µM),relative viability ([3]; first compound 0.253 µM),relative viability ([3]; first compound 0.8 µM),relative viability ([3]; first compound 2.53 µM),relative viability ([3]; first compound 8 µM),relative viability ([4]; first compound 0.08 µM),relative viability ([4]; first compound 0.253 µM),relative viability ([4]; first compound 0.8 µM),relative viability ([4]; first compound 2.53 µM),relative viability ([4]; first compound 8 µM)
NCI-H2170,0.253,0.28,0.254,0.272,0.623,0.576,0.675,0.566,0.678,0.681,0.615,0.643,0.47,0.427,0.443,0.432,0.423,0.442
NCI-H2347,0.901,1.01,0.954,0.911,0.563,0.532,0.535,0.521,0.321,0.388,0.364,0.357,0.371,0.474,0.565,0.555,0.52,0.449
NCI-H2405,1.08,1.08,1.2,0.885,0.886,0.847,0.91,0.883,0.465,,0.668,0.53,0.403,0.641,0.666,0.732,0.447,0.541
NCI-H3122,1.07,1.01,1.01,1.01,0.644,0.616,0.634,0.629,0.355,0.348,0.344,,0.351,0.474,0.393,0.389,0.277,0.298
PC-3 [JPC-3],0.481,0.424,0.438,0.468,1.2,1.24,1.31,0.966,0.785,0.793,0.892,0.78,0.823,0.775,0.827,0.773,0.714,0.751
PC-14,0.334,0.339,0.372,0.308,0.322,0.374,0.279,0.0641,0.556,0.61,0.619,0.613,0.524,0.225,0.174,0.273,0.315,0.271
RERF-LC-KJ,0.832,0.863,0.875,0.829,0.857,0.898,1.04,0.637,0.447,0.513,0.49,0.465,0.388,0.722,0.78,0.601,0.592,0.665
SK-LU-1,0.818,0.754,1,0.839,0.45,0.384,0.564,0.366,,0.334,0.295,0.242,0.261,,0.567,0.627,0.549,0.425
SK-MES-1,0.476,0.433,0.539,0.483,0.66,0.669,0.648,0.0414,0.877,0.939,0.86,0.571,0.549,0.331,0.279,0.396,0.28,0.275
